# Columns and labels:
# [1] = tested on: differentiated L6-myotubes; test: Glucose uptake screen (Biological example 1 of WO 2019/053427); type: cell-based; conditions: compound at 10 μM, activity relative to isoproterenol at 10 μM; for Emax at 10 µM: read-out: Biological example 1 of WO 2019/053427 (GU)
# Method in brief: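 Uptake was read out as ^3H-2-deoxyglucose (50 nM, 10 min) radioactivity in NaOH lysates. Beforehand, overnight-starved, differentiated L6 myotubes received compound at 1×10^−5 M with ICI-118551 present for 1 h 40 min, followed by fresh agonist for a further 20 min in glucose-free medium.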
# [2] = tested on: differentiated L6-myotubes; test: cAMP production relative to isoprenaline (Biological example 2 of WO 2019/053427); type: cell-based; conditions: compound at 10 μM, activity relative to isoproterenol at 10 μM; for Emax at 10 µM: 0.25 h
# Method in brief: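 Values are cAMP levels relative to isoprenaline at equal concentration (final 1×10^−5 M for both). Stimulation lasted 15 min in differentiated L6 myotubes, using HBSS buffer (pH 7.4) containing 1 mM IBMX, 5 mM HEPES and 1% BSA.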
SMILES,Emax at 10 µM [1] [%],Emax at 10 µM [2] [%],Biological example 1 of WO 2019/053427 (GU) [1],Biological example of WO 2019/053427 (cAMP) [2]
"O[C@@H](c1cccc(F)c1)C12CCC(CCc3cccnc3)(CC1)N2 [Compound 445, (S)-(m-fluorophenyl){4-[2-(3-pyridyl)ethyl]-7-azabicyclo[2.2.1]hept-1-yl}methanol]",> 75,< 25,,
"Oc1ccc(C(O)CNCCC2CCCCC2)cc1 (centres unmarked) [Compound 16, 2-(2-cyclohexylethylamino)-1-(p-hydroxyphenyl)-1-ethanol]",25 to 50,< 25,,
"CC12CCC([C@@H](O)c3ccccc3Cl)(CC1)N2 [Compound 194, (S)-(o-chlorophenyl)(4-methyl-7-azabicyclo[2.2.1]hept-1-yl)methanol]",> 75,< 25,,
"CC(C)(CC[C@H]1CC[C@H](C(=O)O)CC1)NC[C@H](O)c1cncc(F)c1 [Compound 343, (1R,4r)-4-{3-[(R)-2-(5-fluoro-3-pyridyl)-2-hydroxyethylamino]-3-methylbutyl}cyclohexanecarboxylic acid]",25 to 50,< 25,,
"O[C@@H](c1cncc(F)c1)[C@H]1CC[C@@H](Cc2ccc(Cl)cc2)N1 [Compound 403, (S)-{(2R,5S)-5-[(p-chlorophenyl)methyl]-2-pyrroldiinyl}(5-fluoro-3-pyridyl)methanol]",50 to 75,< 25,,
"CCC[C@@H]1CC[C@H]([C@H](O)c2ccccc2Cl)N1 [Compound 148, (R)-[(2R,5R)-5-propyl-2-pyrrolidinyl](o-chlorophenyl)methanol]",> 75,< 25,,
"CS(=O)(=O)N(Cc1ccccc1)[C@H]1CC[C@H](C[C@@H]2CC[C@H]([C@H](O)c3cccc(F)c3)N2)CC1 [Compound 502, (R)-[(2R,5S)-5-({(1r,4S)-4-[(benzyl)-N-mesylamino]cyclohexyl}methyl)-2-pyrrolidinyl](m-fluorophenyl)methanol]",< 25,< 25,,
"CC1(C)CC[C@H]([C@H](O)c2cccc(Cl)c2)N1 [Compound 154, (R)-[(R)-5,5-dimethyl-2-pyrrolidinyl](m-chlorophenyl)methanol]",> 75,< 25,,
"CO[C@H]1CC[C@@H](C(C)(C)NC[C@H](O)c2cccc(F)c2)CC1 [Compound 251, (R)-1-(m-fluroophenyl)-2-{1-methyl-1-[(1s,4S)-4-methoxycyclohexyl]ethyl-amino}-1-ethanol]",< 25,< 25,,
"CC(=O)N[C@H]1CC[C@H](CC(C)(C)NC[C@H](O)c2cccnc2C)CC1 [Compound 434, N-[(1R,4r)-4-{2-[(R)-2-hydroxy-2-(2-methyl-3-pyridyl)ethylamino]-2-methylpropyl}cyclohexyl]acetamide]",> 75,< 25,,
"CO[C@H]1CC[C@H](C[C@H]2CC[C@H]([C@@H](O)c3cccc(F)c3)N2)CC1 [Compound 334, (S)-[(2R,5R)-5-{[(1r,4R)-4-methoxycyclohexyl]methyl}-2-pyrrolidinyl](m-fluorophenyl)methanol]",25 to 50,< 25,,
"CCS(=O)(=O)N[C@H]1CC[C@H](CC(C)(C)NC[C@H](O)c2cncc(F)c2)CC1 [Compound 525, (R)-2-{1,1-dimethyl-2-[(1r,4R)-4-(ethylsulfonylamino)cyclohexyl]ethylamino}-1-(5-fluoro-3-pyridyl)-1-ethanol]",50 to 75,< 25,,
"CC(C)(NC[C@H](O)c1cncc(F)c1)[C@H]1CC[C@@H](C(=O)O)CC1 [Compound 323, (1S,4s)-8-[(R)-2-(5-fluoro-3-pyridyl)-2-hydroxyethylamino]-7-hydroxy-p-menthan-7-one]",25 to 50,50 to 75,,
"O[C@@H](CNCC[C@H]1CC[C@H](O)CC1)c1cccc(F)c1 [Compound 298, (R)-1-(m-fluorophenyl)-2-{2-[(1r,4R)-4-hydroxycyclohexyl]ethylamino}-1-ethanol]",25 to 50,< 25,,
"CCCCNC[C@H](O)c1ccc(F)cc1 [Compound 46, (R)-2-(butylamino)-1-(p-fluorophenyl)-1-ethanol]",50 to 75,< 25,,
"CC(C)(C[C@H]1CC[C@H](NS(=O)(=O)C(F)(F)F)CC1)NC[C@H](O)c1cccc(F)c1 [Compound 458, (R)-2-{1,1-dimethyl-2-[(1r,4R)-4-(trifluoromesylamino)cyclohexyl]ethylamino}-1-(m-fluorophenyl)-1-ethanol]",> 75,< 25,,
"CC(C)(C[C@H]1CC[C@@H](N)CC1)NC[C@H](O)c1cccc(C#N)n1 [Compound 418, 6-[(S)-2-{1,1-dimethyl-2-[(1s,4R)-4-aminocyclohexyl]ethylamino}-1-hydroxyethyl]-2-pyridinecarbonitrile]",50 to 75,< 25,,

SMILES,Emax at 10 µM [1] [%],Emax at 10 µM [2] [%],Biological example 1 of WO 2019/053427 (GU) [1],Biological example of WO 2019/053427 (cAMP) [2]
"CO[C@H]1CC[C@H](CCCNC[C@H](O)c2cccc(F)c2)CC1 [Compound 259, (R)-1-(m-fluorophenyl)-2-{3-[(1r,4S)-4-methoxycyclohexyl]propyl-amino}-1-ethanol]",25 to 50,< 25,,
"CC(C)(C[C@H]1CC[C@H](C(=O)O)CC1)NC[C@H](O)c1cccc(F)c1 [Compound 355, (1R,4r)-4-{2-[(R)-2-(m-fluorophenyl)-2-hydroxyethylamino]-2-methylpropyl}cyclohexanecarboxylic acid]",50 to 75,< 25,,
"CC1(C)CC[C@H]([C@@H](O)c2cncc(F)c2)N1 [Compound 156, (S)-[(R)-5,5-dimethyl-2-pyrrolidinyl](5-fluoro-3-pyridyl)methanol]",< 25,< 25,,
"CC(=O)N[C@H]1CC[C@@H](C[C@@H]2CC[C@H]([C@H](O)c3cccc(F)c3)N2)CC1 [Compound 484, N-[(1R,4s)-4-({(2S,5R)-5-[(R)-(m-fluorophenyl)hydroxymethyl]-2-pyrrolidinyl}methyl)cyclohexyl]acetamide]",50 to 75,< 25,,
"CCC[C@H]1CCC[C@@H]([C@H](O)c2cccc(F)c2)N1 [Compound 120, (R)-[(2S,6S)-6-propyl-2-piperidyl](m-fluorophenyl)methanol]",50 to 75,< 25,,
"CN(C)S(=O)(=O)[C@H]1CC[C@H](CC(C)(C)NC[C@H](O)c2cccc(F)c2)CC1 [Compound 464, (R)-2-{1,1-dimethyl-2-[(1r,4R)-4-(dimethylaminosulfonyl)cyclohexyl]ethylamino}-1-(m-fluorophenyl)-1-ethanol]",25 to 50,25 to 50,,
"O[C@@H](c1cncc(F)c1)C12CCC(CCCc3ccccc3)(CC1)N2 [Compound 531, (S)-(5-fluoro-3-pyridyl){4-(3-phenylpropyl)-7-azabicyclo[2.2.1]hept-1-yl}methanol]",50 to 75,< 25,,
"O[C@@H](CNCC[C@H]1CC[C@@H](O)CC1)c1cncc(F)c1 [Compound 293, (R)-1-(5-fluoro-3-pyridyl)-2-{2-[(1s,4S)-4-hydroxycyclohexyl]ethylamino}-1-ethanol]",25 to 50,< 25,,
"O[C@@H](CNCC[C@H]1CC[C@@H](OCc2ccccc2)CC1)c1cccc(F)c1 [Compound 287, (R)-1-(m-fluorophenyl)-2-{2-[(1s,4S)-4-(benzyloxy)cyclohexyl]eth-ylamino}-1-ethanol]",50 to 75,< 25,,
"O[C@H](c1cccc(F)c1)[C@H]1CC[C@@H](Cc2ccc(Cl)cc2)N1 [Compound 392, (R)-{(2R,5S)-5-[(p-chlorophenyl)methyl]-2-pyrrolidinyl}(m-fluorophenyl)methanol]",> 75,< 25,,
"CC1(C)CC[C@H]([C@@H](O)c2cccc(O)c2)N1 [Compound 111, m-{(S)-[(R)-5,5-dimethyl-2-pyrrolidinyl]hydroxymeth-yl}phenol]",50 to 75,< 25,,
"CCCC(C)(C)NC[C@H](O)c1cccc(F)c1 [Compound 61, (R)-2-(1,1-dimethylbutylamino)-1-(m-fluorophenyl)-1-ethanol]",> 75,< 25,,
CC1(C)CC[C@H]([C@@H](O)c2ccccc2Cl)N1 [Compound 152],,,+++ (more than 75% of that of isoproterenol at 10 μM),− (less than 25%)
"CNS(=O)(=O)[C@H]1CC[C@@H](CC(C)(C)NC[C@H](O)c2cccc(F)c2)CC1 [Compound 477, (R)-2-{1,1-dimethyl-2-[(1s,4S)-4-(methylaminosulfonyl)cyclohexyl]ethylamino}-1-(m-fluorophenyl)-1-ethanol]",50 to 75,< 25,,
"CC(=O)N(C)[C@H]1CC[C@H](CC(C)(C)NC[C@H](O)c2cncc(F)c2)CC1 [Compound 506, N-[(1R,4r)-4-{2-[(R)-2-(5-fluoro-3-pyridyl)-2-hydroxyethylamino]-2-methylpropyl}cyclohexyl]-N-methylacetamide]",> 75,25 to 50,,
"CS(=O)(=O)N(Cc1ccccc1)c1cccc(CC23CCC([C@H](O)c4cccc(F)c4)(CC2)N3)c1 [Compound 513, (R)-[4-({m-[(benzyl)-N-mesylamino]phenyl}methyl)-7-azabicyclo[2.2.1]hept-1-yl](m-fluorophenyl)methanol]",25 to 50,< 25,,
"CC1(C)C[C@H]([C@H](O)c2cncc(F)c2)N1 [Compound 214, (R)-[(R)-4,4-dimethyl-2-azetidinyl](5-fluoro-3-pyridyl)methanol]",> 75,< 25,,
